# Laboratory results: ChEMBL document CHEMBL2010684, “JBIR-78 and JBIR-95: phenylacetylated peptides isolated from Kibdelosporangium sp. AK-AA56” (2012)
# System: Micrococcus luteus
# Test: Antimicrobial activity against Micrococcus luteus at 10 ug after 24 hrs by paper disk method
# Assay type: functional
# Conditions: read-out: DIZ
row,Structure (SMILES),zone of inhibition at 10 µg/disc [mm]
1,CC(C)[C@H](NC(=O)Cc1ccccc1)C(=O)N[C@H](CC(=O)O)C(=O)N[C@@H](C)C(=O)N[C@@H](C(=O)NCC(=O)N[C@H](C)C(=O)N[C@@H](Cc1ccccc1)C(=O)O)[C@@H](O)C(C)C,7.1
2,CC[C@H]1OC(=O)[C@H](C)[C@@H](O[C@H]2C[C@@](C)(OC)[C@@H](O)[C@H](C)O2)[C@H](C)[C@@H](O[C@@H]2O[C@H](C)C[C@H](N(C)C)[C@H]2O)[C@](C)(O)C[C@@H](C)C(=O)[C@H](C)[C@@H](O)[C@]1(C)O [ERYTHROMYCIN],25
